Assay results published in US20200085839A1, “COMBINATION OF IMMUNOTHERAPEUTICS AND BISFLUOROALKYL-1,4-BENZODIAZEPINONE COMPOUNDS FOR TREATING LYMPHOMAS” (Ayala Pharmaceuticals Inc., priority 2018, published 2020).
Where two headings read alike, the source gives them in different places.

What was measured:
[1] = tested on: U266 human myeloma cell line cells in NSG mice; assay: Anti-tumor activity of BCMA-targeted CAR-T cells and Compound (1) in vivo; conditions: combination with 1×10^6 BCMA targeted CAR-T cells IV on day 4; imaging day 11
Description: BCMA targeted CAR-T cells mediate an anti-myeloma immune response. 1×10^7 U266 human myeloma cell line cells are injected IV into NSG mice on day 0. On day 4, a) 1×10^6 BCMA targeted second generation CAR-T cells, Compound (1) or both are injected IV.

Multiple Myeloma = assay: Anti-tumor activity of CAR-BCMA T cells and Compound (1) in patients; assay type: in vivo, human; conditions: CAR-BCMA T cells with a composition comprising Compound (1)
Description: All patients receive 3 doses of 300 mg/m^2 cyclophosphamide and 3 doses of 30 mg/m^2 fludarabine. Chemotherapy is administered because recipient leukocyte depletion enhances the activity of adoptively transferred T cells. Both chemotherapy agents are administered daily on days −5, −4, and −3 before CAR-BCMA T-cell infusion on day 0. CAR-BCMA T cells are administered to each patient with a composition comprising Compound (1). The dose escalation plan calls for an initial dose of 0.3×10^6 CAR^+ T cells/kg with threefold increases to each subsequent dose level.
Myeloma staging is conducted according to the International Uniform Response Criteria for Multiple Myeloma. Toxicity is graded by the Common Terminology Criteria for Adverse Events version 4.02. Two weeks, 1 month, 2 months, 3 months, and 6 months after CAR-BCMA infusion, MM is assessed with standard staging tests.
Autologous peripheral blood mononuclear cells (PBMCs) are cultured with an anti-CD3 monoclonal antibody to induce T-cell proliferation. The cells are transduced with the γ-retroviral vector that encodes that CAR, and 9 days after the initiation of cultures, CAR-BCMA T cells are infused.
CAR-BCMA T cells are detected by flow cytometry after staining with a phycoerythrin-labeled BCMA constant-fragment reagent (PE-BCMA-Fc). CAR-BCMA T cells are also detected by performing quantitative PCR (qPCR). […]

SUDHL-8 cells (DLBCL) = assay: Soluble (shed) BCMA by ELISA; assay type: cell-based, human
Description: (§1) […] cell lines, comprising 9 subtypes of lymphomas (see Table 1), were seeded at 1×10^5 cells/well in a total volume of 250 μl into a 96-well plate. The cells were cultured in RPMI medium supplemented with 10% FCS. Compound (22) was added to the cell cultures at a concentration of 10 μM, 1 μM, 100 nM, 10 nM, 1 nM, 100 pM, 10 pM, 1 pM, and 100 fM, and cell lines (8 from Hadassah Medical Center, 31 from Eurofins) were incubated at 37° C. for 24 hours with Compound (22). Following incubation, the cells were collected and BCMA levels were evaluated on the cell surface for cell-bound BCMA. Cells were stained with an anti-BCMA antibody (PE anti-human 19F2 BCMA, Biolegend), and cell surface BCMA levels were determined by FACS analysis (Mean Fluorescence Intensity. Soluble BCMA levels were analyzed by ELISA (Human BCMA/TNFRSF17 DuoSet kit: R&D Systems).

[2] = tested on: GA-10 cells (Burkitt's Lymphoma); assay: Soluble (shed) BCMA by ELISA; assay type: cell-based, human
Description: as §1

[3] = tested on: H9 cells (Cutaneous T-cell Lymphoma); assay: Soluble (shed) BCMA by ELISA; assay type: cell-based, human
Description: as §1

[4] = tested on: L-248 cells (Hodgkin's Lymphoma); assay: Soluble (shed) BCMA by ELISA; assay type: cell-based, human
Description: as §1

[5] = tested on: JVM-2 cells (Mantle Cell Lymphoma); assay: Soluble (shed) BCMA by ELISA; assay type: cell-based, human
Description: as §1

[6] = tested on: EB-2 cells (Burkitt's Lymphoma); assay: Soluble (shed) BCMA by ELISA; assay type: cell-based, human
Description: as §1

[7] = tested on: NU-DUL-1 cells (B-cell Lymphoma); assay: Cell surface BCMA by FACS; assay type: cell-based, human; conditions: for EC50: Homo sapiens
Description: as §1

HT cells (DLBCL) = assay: Cell surface BCMA by FACS; assay type: cell-based, human; conditions: for EC50: Homo sapiens
Description: as §1

DB cells (DLBCL) = assay: Cell surface BCMA by FACS; assay type: cell-based, human; conditions: for EC50: Homo sapiens
Description: as §1

[8] = tested on: CA46 cells (Burkitt's Lymphoma); assay: Cell surface BCMA by FACS; assay type: cell-based, human; conditions: for EC50: Homo sapiens
Description: as §1

[9] = tested on: CRO-AP2 cells (B-cell Lymphoma); assay: Cell surface BCMA by FACS; assay type: cell-based, human; conditions: for EC50: Homo sapiens
Description: as §1

[10] = tested on: U937 cells (Histiocytic Lymphoma); assay: Cell surface BCMA by FACS; assay type: cell-based, human; conditions: for EC50: Homo sapiens
Description: as §1

[11] = Homo sapiens, read-out: Shed BCMA (pg/ml) EC50
[12] = 24 h, read-out: BCMA (Mean Fluorescence Intensity) EC50

Structure (SMILES): CN1C(=O)[C@@H](NC(=O)[C@H](CCC(F)(F)F)[C@H](CCC(F)(F)F)C(N)=O)N=C(c2ccccc2)c2ccccc21 [Compound 1, (2R,3S)—N-((3S)-1-methyl-2-oxo-5-phenyl-2,3-dihydro-1H-1,4-benzodiazepin-3-yl)-2,3-bis(3,3,3-trifluoropropyl)succinamide]
- anti-tumor response, imaging of tumors [1]: improved anti-tumor response compared to either BCMA targeted CAR-T or Compound (1) treatment alone
- anti-tumor response (Multiple Myeloma): improved anti-tumor response compared to either BCMA targeted CAR-T or Compound (1) treatment alone

Structure (SMILES): Cc1cccc2c1NC(=O)[C@@H](NC(=O)[C@H](CCC(F)(F)F)[C@H](CCC(F)(F)F)C(N)=O)N=C2c1cccc(F)c1 [Compound (22), (2R,3S)—N-((3S)-5-(3-fluorophenyl)-9-methyl-2-oxo-2,3-dihydro-1H-1,4-benzodiazepin-3-yl)-2,3-bis(3,3,3-trifluoropropyl)succinamide]
- Shed BCMA (pg/ml) % Reduction (SUDHL-8 cells (DLBCL)): 100%
- EC50 (SUDHL-8 cells (DLBCL); Homo sapiens, SU-DHL-8, read-out: Shed BCMA (pg/ml) EC50): 0.5 nM
- Shed BCMA (pg/ml) % Reduction [2]: 83%
- soluble BCMA 1 nM Compound (22) ([2]; 1 nM, 24 h): >2000
- soluble BCMA 10 nM Compound (22) ([2]; 10 nM, 24 h): 800.8
- soluble BCMA 100 nM Compound (22) ([2]; 100 nM, 24 h): 398.1
- EC50 [2, 11]: 7.4 nM
- Shed BCMA (pg/ml) % Reduction [3]: BLQ
- EC50 [3, 11]: > 10000 nM
- Shed BCMA (pg/ml) % Reduction [4]: BLQ
- EC50 [4, 11]: > 10000 nM
- Shed BCMA (pg/ml) % Reduction [5]: 57%
- EC50 [5, 11]: 75.3 nM
- soluble BCMA 1 nM Compound (22) ([6]; EB2, 1 nM, 24 h): >2000
- soluble BCMA 10 nM Compound (22) ([6]; EB2, 10 nM, 24 h): 597.7
- soluble BCMA 100 nM Compound (22) ([6]; EB2, 100 nM, 24 h): 479.4
- Shed BCMA (pg/ml) % Reduction ([6]; EB-2): 70%
- EC50 ([6]; Homo sapiens, EB2, EB-2, read-out: Shed BCMA (pg/ml) EC50): 7.1 nM
- mBCMA (MFI) Fold Increase [7]: 7.0 fold
- BCMA (Mean Fluorescence Intensity) 1 nM Compound (22) ([7]; 1 nM, 24 h): 3892
- BCMA (Mean Fluorescence Intensity) 100 nM Compound (22) ([7]; 100 nM, 24 h): 4665
- EC50 [7, 12]: 0.61 nM
- EC50 ([7]; read-out: mBCMA (MFI) EC50): 0.61 nM
- mBCMA (MFI) Fold Increase (HT cells (DLBCL)): 3.2 fold
- BCMA (Mean Fluorescence Intensity) 1 nM Compound (22) (HT cells (DLBCL); 1 nM, 24 h): 488
- BCMA (Mean Fluorescence Intensity) 100 nM Compound (22) (HT cells (DLBCL); 100 nM, 24 h): 895
- EC50 (HT cells (DLBCL); [12]): 2.3 nM
- EC50 (HT cells (DLBCL); read-out: mBCMA (MFI) EC50): 2.3 nM
- mBCMA (MFI) Fold Increase (DB cells (DLBCL)): 4.1 fold
- BCMA (Mean Fluorescence Intensity) 1 nM Compound (22) (DB cells (DLBCL); 1 nM, 24 h): 870
- BCMA (Mean Fluorescence Intensity) 100 nM Compound (22) (DB cells (DLBCL); 100 nM, 24 h): 1827
- cell-bound BCMA (DB cells (DLBCL); FIG. 9A): increased cell-bound BCMA
- EC50 (DB cells (DLBCL); [12]): 4.9 nM
- EC50 (DB cells (DLBCL); read-out: mBCMA (MFI) EC50): 4.9 nM
- mBCMA (MFI) Fold Increase [8]: 5.5 fold
- BCMA (Mean Fluorescence Intensity) 1 nM Compound (22) ([8]; 1 nM, 24 h): 6424
- BCMA (Mean Fluorescence Intensity) 100 nM Compound (22) ([8]; 100 nM, 24 h): 13506
- EC50 [8, 12]: 2.3 nM
- EC50 ([8]; read-out: mBCMA (MFI) EC50): 2.3 nM
- mBCMA (MFI) Fold Increase [9]: 6.6 fold
- BCMA (Mean Fluorescence Intensity) 1 nM Compound (22) ([9]; 1 nM, 24 h): 855
- BCMA (Mean Fluorescence Intensity) 100 nM Compound (22) ([9]; 100 nM, 24 h): 4782
- EC50 [9, 12]: 5.6 nM
- EC50 ([9]; read-out: mBCMA (MFI) EC50): 5.6 nM
- mBCMA (MFI) Fold Increase [10]: 1.0 fold
- BCMA (Mean Fluorescence Intensity) 1 nM Compound (22) ([10]; 1 nM, 24 h): 327
- BCMA (Mean Fluorescence Intensity) 100 nM Compound (22) ([10]; 100 nM, 24 h): 328
- EC50 ([10]; U-937, 24 h, read-out: BCMA (Mean Fluorescence Intensity) EC50): > 10000 nM
- EC50 ([10]; U-937, read-out: mBCMA (MFI) EC50): > 10000 nM
